# Literature values, collected in US20260345593A1, “ORAL FORMULATION OF N-PYRIDINYL ACETAMIDE DERIVATIVE FOR TREATING INTERSTITIAL LUNG DISEASE” (AstraZeneca AB, priority 2022, published 2026).
# Columns and labels:
# porcupine (PORCN) = conditions: statement in words; cited from earlier work
# [1] = tested on: mouse bleomycin in vivo pulmonary fibrosis; conditions: mouse bleomycin in vivo study (Bunyard 2019); cited from earlier work
# [2] = tested on: carbon tetrachloride-induced hepatic fibrosis in mice; conditions: mice (Bunyard 2019); cited from earlier work
smiles,measurement,setting,value
"Cc1cc(-c2nccc3c2ccn3CC(=O)Nc2ccc(-c3cnccn3)cn2)ccn1 [AZD5055, 2-[4-(2-methyl-4-pyridyl)pyrrolo[3,2-c]pyridin-1-yl]-N-(5-pyrazin-2-yl-2-pyridyl)acetamide]",inhibition of the intracellular enzyme porcupine (PORCN),porcupine (PORCN),"potent, and selective inhibitor"
same,pulmonary fibrosis,[1],reduced pulmonary fibrosis
same,carbon tetrachloride-induced hepatic fibrosis,[2],reduces
